Source: US6989390B2, “Amonafide salts” (priority 2002, dated 2006)

What was measured:
Test in all cases: Hollow Fiber in vivo anti-cancer assay
Parameters in all cases: species or system mice
[1] = tested on: MCF-7 (Breast)
Experimental: (§1) The in vivo activity was tested using the Hollow Fiber methodology developed by the National Cancer Institute: Developmental Therapeutics Branch for use in their antineoplastic agent screening program. Specifically, the anti-cancer activity of amonafide L-malate was tested by the following protocol.
(§2) Polyvinylidene fluoride (PVDF) hollow fibers were used. The fibers were individually flushed and filled with 70% ethanol and incubated in 70% ethanol at room temperature for a minimum of 96 hour. Following three washes with deionized water, the fibers were filled with and placed into a pan of deionized water for sterilization by autoclaving. Then the fibers were stored in water at 4° C. until used.
(§3) Mice were grouped into 4 groups, two control groups with 6 mice per group and 2 experimental groups with 3 mice per group.
(§4) Anesthesia was induced in mice by ketamine/acepromazine/xylazine injected intraperitoneally (i.p.) For the intraperitoneal (i.p.) implants, a small incision was made through the skin and musculature of the dorsal abdominal wall, the fiber samples were inserted into the peritoneal cavity in a craniocaudal direction and the incision was closed with a skin staple. For subcutaneous (s.c.) implants, a small skin incision was made at the nape of the neck to allow insertion of an 11 gauge tumor implant trocar. The trocar, containing the hollow fiber samples, was inserted caudally through the subcutaneous tissues and the fibers were deposited during withdrawal of the trocar. The skin incision was closed with a skin staple. Each mouse was host of 6 samples, representing 3 tumor cells lines each of which was cultured in the 2 physiologic compartments (i.p. and s.c.).
(§5) On the day following the last drug injection, the animals were sacrificed and the hollow fibers extracted. The hollow fibers were then subjected to the stable endpoint MTT assay as described in Example 5. The optical density of each sample is determined spectrophotometrically at 540 nm and the mean of each treatment group is calculated. The percent net growth for each cell line in each treatment group is calculated as described in Example 5 and compared to the percent net growth in the vehicle treated controls (Group B) using the formula below to determine the percent growth inhibition:
(§6) % growth inhibition=(Net GrowthControl−Net GrowthTreated)/Net GrowthControl)*100

[2] = tested on: MDA-231 (Breast)
Experimental: as §1, §2, §3, §4, §5, §6

[3] = tested on: COLO205 (Colorectal)
Experimental: as §1, §2, §3, §4, §5, §6

[4] = tested on: PC3 (Prostate); details: for % Growth Inhibition: 29.4 mg/kg i.p. once daily days 3-8
Experimental: as §1, §2, §3, §4, §5, §6

[5] = tested on: H23 (Lung)
Experimental: as §1, §2, §3, §4, §5, §6

SMILES: CN(C)CCN1C(=O)c2cccc3cc(N)cc(c23)C1=O.O=C(O)C[C@H](O)C(=O)O [Amonafide Malate]
- % Growth Inhibition ([1]; MCF-7, I.P. fibers, 15 mg/kg i.p. twice-daily): 97%
- % Growth Inhibition ([1]; MCF-7, I.P. fibers, 29 mg/kg i.p. twice-daily): 124%
- % Growth Inhibition ([1]; MCF-7, IP, 29.4 mg/kg i.p. once daily days 3-8): 150.2%
- % Growth Inhibition ([1]; MCF-7, S.C. fibers, 15 mg/kg i.p. twice-daily): 83%
- % Growth Inhibition ([1]; MCF-7, S.C. fibers, 29 mg/kg i.p. twice-daily): 107%
- % Growth Inhibition ([1]; MCF-7, SC, 29.4 mg/kg i.p. once daily days 3-8): 116.1%
- percent growth inhibition (text summary of Tables 6-8) ([1]; MCF-7, above 100% indicates lethality for cancerous cells): above 100%
- % Growth Inhibition ([2]; MDA-231, I.P. fibers, 15 mg/kg i.p. twice-daily): 93%
- % Growth Inhibition ([2]; MDA-231, I.P. fibers, 29 mg/kg i.p. twice-daily): 108%
- % Growth Inhibition ([2]; MDA-231, S.C. fibers, 15 mg/kg i.p. twice-daily): 79%
- % Growth Inhibition ([2]; MDA-231, S.C. fibers, 29 mg/kg i.p. twice-daily): 113%
- percent growth inhibition (text summary of Tables 6-8) ([2]; MDA-231, above 100% indicates lethality for cancerous cells): above 100%
- percent growth inhibition (text summary of Tables 6-8) ([3]; COLO205 (colorectal cancer)): Significant percent growth inhibition
- % Growth Inhibition ([3]; COLO205, I.P. fibers, 15 mg/kg i.p. twice-daily): 82%
- % Growth Inhibition ([3]; COLO205, I.P. fibers, 29 mg/kg i.p. twice-daily): 98%
- % Growth Inhibition ([3]; COLO205, IP, 29.4 mg/kg i.p. once daily days 3-8): 84.6%
- % Growth Inhibition ([3]; COLO205, S.C. fibers, 15 mg/kg i.p. twice-daily): 50%
- % Growth Inhibition ([3]; COLO205, S.C. fibers, 29 mg/kg i.p. twice-daily): 76%
- % Growth Inhibition ([3]; COLO205, SC, 29.4 mg/kg i.p. once daily days 3-8): 80.4%
- % Growth Inhibition ([4]; PC3, IP): 71.6%
- % Growth Inhibition ([4]; PC3, SC): 52.9%
- percent growth inhibition (text summary of Tables 6-8) ([4]; PC-3 (prostate)): Significant percent growth inhibition
- % Growth Inhibition ([5]; H23, I.P. fibers, 15 mg/kg i.p. twice-daily): 36%
- % Growth Inhibition ([5]; H23, I.P. fibers, 29 mg/kg i.p. twice-daily): 47%
- % Growth Inhibition ([5]; H23, S.C. fibers, 15 mg/kg i.p. twice-daily): 13%
- % Growth Inhibition ([5]; H23, S.C. fibers, 29 mg/kg i.p. twice-daily): 27%
